Laboratory results: US20250263404A1, “AMINOPYRIDINES AS ACTIVATORS OF PI3 KINASE” (UCL Business Ltd, priority 2021, published 2025)

What was measured:
[1] = test system: exposed rat sciatic nerves; experiment: pAKT induction in exposed rat sciatic nerves; assay type: in vivo; conditions: direct injection or bathing, 5 μM
Procedure: (§1) Stimulated by these observations, we next tested 1938 in the sciatic nerve crush model in the rat, an in vivo model of peripheral nerve injury and regeneration. […] Immediately after the nerve crush (FIG. 5e, i-ii), 1938 was delivered via a single intraneural injection into the proximal crush site (FIG. 5e, iii) and via a minipump implanted adjacent to the nerve (FIG. 5e, iv), loaded with 1938 solution, for continuous delivery for the duration of the experiment. Analyses were conducted 3 weeks after injury.
Test experiment to assess if 1938 could induce pAkt generation in exposed rat sciatic nerves, adult male Sprague Dawley rats (>250 g; n=2) were anaesthetised using isoflurane, the left leg sciatic nerve was exposed and injected with 2 μl vehicle (sterile dH2O) or 1938 (5 μM in sterile dH2O). Meanwhile the sciatic nerve of the right leg was exposed and bathed in 250 μl of vehicle (sterile dH2O) or 1938 (5 μM in sterile dH2O). Each animal received one vehicle and one compound treatment. The treatments were left on for 30 min prior to washing the bathed nerves with sterile PBS and culling via sodium pentobarbital injection according to local regulations, the animal by schedule 1. Nerves were then harvested, washed in fresh 4° C. PBS and stored in a fresh vial before snap freezing in liquid nitrogen. […]

rat sciatic nerve = experiment: Rat sciatic nerve crush injury model; assay type: in vivo; conditions: 21 days
Procedure: as §1
Adult female Sprague Dawley rats (230-280 g, n=10, Charles River, UK) were anaesthetised by isoflurane inhalation in an induction chamber (5% isoflurane in O2, 0.8 l/min). Anaesthesia was maintained with 1.5-2.5% isoflurane inhalation, and the left sciatic nerve exposed at mid-thigh level.
The nerve was crushed by application of constant pressure using fully closed sterile type 4 tweezers (TAAB) for 15 sec. This was repeated two more times at the same point, with 45° rotation between each crush. The injury site was marked with a 10/0 epineurial non-absorbant suture (Ethicon). Following injury, frozen aliquots of 1938 solution and vehicle were defrosted. A single 2 μl injection of 1938 solution (5 μM in sterile H2O) or vehicle (sterile dH2O) was administered proximal to the crush site with a 10 μl Hamilton syringe. An osmotic minipump (Alzet 1004, Charles River, UK) was also implanted between the muscle layers, adjacent to the nerve oriented with the outlet nearest to the crush site, loaded with 1938 solution (100 μM in sterile H2O) or vehicle (sterile H2O). Animals were randomly assigned to groups (n=5 per group) and one experimenter was kept blind to condition for conducting functional and histological analyses. […]
At the end-point of the experiment (21 days), rats were anaesthetised and the sciatic nerve exposed as described above. […] The MI was manufactured using a previously documented protocol (Lancashire, H. T. et al. J Neural Eng 13, 034001 (2016). Electrode impedance of the MNI was 27.1±19.8 kΩ at 1k Hz. Compound muscle action potential (CMAP) was obtained by sciatic nerve stimulation with square wave pulses of 100 μsec with intensity from 1-10 mA. Stimulus was increased in 0.2 mA steps until muscle response amplitude no longer increased. CMAP amplitude was measured from peak to peak and recorded in triplicate for both the ipsilateral and contralateral side. The CMAP with the largest amplitude was selected for analysis.
A modified multipoint stimulation technique was used to calculate Motor Unit Number Estimation (MUNE) (Shefner, J. M. et al. Muscle & nerve 34, 603-607 (2006); Jacobsen, A. B. et al. J Vis Exp (2018); Arnold, W. D. et al. J Vis Exp (2015)). […] The CMAP was divided by the mean magnitude of SMUPs to quantify MUNE. […]

Structure (SMILES): CCN1CCN(c2ccc(Nc3cc(Nc4cccc5c4N(C(C)=O)CC5)ccn3)cc2)CC1 [Example 1938]
- pAKT in sciatic nerve [1]: induction of pAKT
- neurofilament- and ChAT-positive axons, treatment versus control (rat sciatic nerve; 3 mm and 6 mm distal to the crush site): equivalent numbers
- number of ChAT-positive motor axons (rat sciatic nerve; distal common peroneal nerve): an increase
- compound muscle action potential (CMAP) recovery (rat sciatic nerve; tibialis anterior muscle): greater
- motor unit number estimation (MUNE) (rat sciatic nerve; tibialis anterior muscle): increased
